Article PMC6135981 (iScience, 2018)

Assays:
[1] = in vitro; settings: human
[2] = molecular target: T1, P-gp (Homo sapiens, UniProt P08183); test: in vitro; settings: Efflux ratio (B to A)/(A to B)
[3] = tested on: 3D intestinal tissue; settings: 3D intestine, apical to basal direction
[4] = tested on: prostaglandin E2 secretion; test: Prostaglandin E2 secretion, 3D intestinal tissue; type: cell-based, human; settings: all doses, 24-hr treatment
[5] = tested on: TNF-α/nuclear factor (NF)-κB pathway; test: Gene expression of TNF-α/NF-κB pathway targets, 3D intestinal tissue; type: cell-based, human; settings: TNF-α for 24 hr
[6] = tested on: 3D intestinal tissue; test: LDH release after toxicant treatment, 3D intestinal tissue; type: cell-based, human; settings: TNF-α for 24 hr
[7] = tested on: 3D intestinal tissue; type: cell-based, human; settings: 24-hr treatment
[8] = molecular target: T2, BCRP (Homo sapiens, UniProt Q9UNQ0); test: in vitro; settings: Efflux ratio (B to A)/(A to B), 3D intestinal tissue, dual inhibition with Ko143 and zosuquidar
T2 sequence (Q9UNQ0 1-655): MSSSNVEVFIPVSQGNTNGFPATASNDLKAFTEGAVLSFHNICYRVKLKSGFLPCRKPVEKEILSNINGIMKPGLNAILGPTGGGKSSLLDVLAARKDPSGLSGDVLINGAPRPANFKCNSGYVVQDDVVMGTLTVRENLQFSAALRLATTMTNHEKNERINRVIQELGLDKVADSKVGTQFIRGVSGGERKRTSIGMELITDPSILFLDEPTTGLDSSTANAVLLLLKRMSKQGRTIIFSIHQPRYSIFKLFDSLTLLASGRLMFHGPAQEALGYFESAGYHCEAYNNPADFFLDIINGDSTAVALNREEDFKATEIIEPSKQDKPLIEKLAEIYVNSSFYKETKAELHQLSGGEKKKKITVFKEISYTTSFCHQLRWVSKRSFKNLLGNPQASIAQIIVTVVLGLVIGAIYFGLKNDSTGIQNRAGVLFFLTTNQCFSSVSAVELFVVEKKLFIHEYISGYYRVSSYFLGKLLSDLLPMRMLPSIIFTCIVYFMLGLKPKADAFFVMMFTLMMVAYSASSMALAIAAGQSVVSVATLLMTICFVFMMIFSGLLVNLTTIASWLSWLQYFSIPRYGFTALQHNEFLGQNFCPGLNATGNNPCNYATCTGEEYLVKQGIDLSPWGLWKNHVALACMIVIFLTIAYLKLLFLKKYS

[9] = molecular target: T1, P-gp; settings: 3D intestinal tissue
[10] = tested on: CYP3A4
[11] = molecular target: CYP2C9 (Homo sapiens, UniProt P11712)
[12] = tested on: 2D Caco-2 monolayers; settings: 2D Caco-2 model
[13] = tested on: IMF tissue alone
[14] = tested on: 3D Caco-2 tissues; settings: 3D Caco-2 model

T1 sequence (P08183 whole entry): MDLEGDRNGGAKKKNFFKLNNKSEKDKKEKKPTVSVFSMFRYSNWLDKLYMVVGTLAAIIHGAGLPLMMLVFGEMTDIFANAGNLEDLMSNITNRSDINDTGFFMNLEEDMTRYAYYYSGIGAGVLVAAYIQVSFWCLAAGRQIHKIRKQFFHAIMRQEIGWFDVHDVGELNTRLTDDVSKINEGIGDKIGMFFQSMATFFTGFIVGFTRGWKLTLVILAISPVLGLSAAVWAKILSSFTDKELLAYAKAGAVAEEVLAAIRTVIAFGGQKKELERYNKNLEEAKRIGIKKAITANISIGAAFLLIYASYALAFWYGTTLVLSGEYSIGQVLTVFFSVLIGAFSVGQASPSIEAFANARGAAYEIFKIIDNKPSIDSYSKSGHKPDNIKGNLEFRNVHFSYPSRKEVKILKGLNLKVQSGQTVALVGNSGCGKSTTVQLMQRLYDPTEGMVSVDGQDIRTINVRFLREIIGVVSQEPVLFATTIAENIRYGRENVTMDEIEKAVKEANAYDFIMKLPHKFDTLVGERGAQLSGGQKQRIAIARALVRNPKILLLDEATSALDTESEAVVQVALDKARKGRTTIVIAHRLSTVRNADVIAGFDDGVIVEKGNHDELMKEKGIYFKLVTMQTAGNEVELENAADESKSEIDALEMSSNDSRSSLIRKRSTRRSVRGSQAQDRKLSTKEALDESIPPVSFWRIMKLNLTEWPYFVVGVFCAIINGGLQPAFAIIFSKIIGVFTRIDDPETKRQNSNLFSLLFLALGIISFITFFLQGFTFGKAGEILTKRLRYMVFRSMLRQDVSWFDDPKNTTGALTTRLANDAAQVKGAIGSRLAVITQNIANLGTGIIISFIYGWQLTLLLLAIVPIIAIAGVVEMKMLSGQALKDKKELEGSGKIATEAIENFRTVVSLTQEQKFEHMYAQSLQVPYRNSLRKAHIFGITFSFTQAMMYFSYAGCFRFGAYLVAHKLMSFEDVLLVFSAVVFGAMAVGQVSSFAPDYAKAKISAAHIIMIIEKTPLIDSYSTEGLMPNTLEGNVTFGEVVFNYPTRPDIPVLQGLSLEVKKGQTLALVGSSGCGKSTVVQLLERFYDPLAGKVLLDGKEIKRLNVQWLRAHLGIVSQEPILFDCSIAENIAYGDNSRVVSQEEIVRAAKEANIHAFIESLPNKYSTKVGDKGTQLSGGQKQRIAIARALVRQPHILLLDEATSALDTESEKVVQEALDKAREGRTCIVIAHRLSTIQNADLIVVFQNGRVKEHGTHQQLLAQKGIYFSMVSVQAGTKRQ
CYP2C9, sequence (P11712 whole entry): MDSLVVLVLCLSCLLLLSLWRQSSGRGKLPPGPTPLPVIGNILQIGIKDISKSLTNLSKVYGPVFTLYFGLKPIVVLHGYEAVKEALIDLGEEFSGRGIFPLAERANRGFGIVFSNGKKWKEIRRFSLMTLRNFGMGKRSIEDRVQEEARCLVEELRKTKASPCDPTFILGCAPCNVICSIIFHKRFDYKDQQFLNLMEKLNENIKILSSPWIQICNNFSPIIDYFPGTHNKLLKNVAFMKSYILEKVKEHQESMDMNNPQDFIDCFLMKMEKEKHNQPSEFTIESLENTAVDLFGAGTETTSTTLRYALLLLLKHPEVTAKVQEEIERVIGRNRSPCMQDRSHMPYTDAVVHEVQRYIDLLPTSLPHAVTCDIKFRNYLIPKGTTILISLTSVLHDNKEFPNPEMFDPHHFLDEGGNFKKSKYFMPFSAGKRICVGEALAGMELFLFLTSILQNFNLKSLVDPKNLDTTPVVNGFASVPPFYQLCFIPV

## O=C1c2c(O)ccc(O)c2C(=O)c2c(NCCNCCO)ccc(NCCNCCO)c21 [mitoxantrone]
[1]
  Papp: 0.2 ± 0.03 ×10⁻⁶ cm/s

## C[C@H]1O[C@@H](O[C@H]2[C@@H](O)C[C@H](O[C@H]3[C@@H](O)C[C@H](O[C@H]4CC[C@@]5(C)[C@H](CC[C@@H]6[C@@H]5C[C@@H](O)[C@]5(C)[C@@H](C7=CC(=O)OC7)CC[C@]65O)C4)O[C@@H]3C)O[C@@H]2C)C[C@H](O)[C@@H]1O [digoxin]
[1]
  Papp: 8.53 ± 2.02 ×10⁻⁶ cm/s
[2]
  efflux ratio: > 2
[3]
  Permeability class: moderate

## CC(C)NCC(O)COc1cccc2ccccc12 (centres unmarked) [propranolol]
[1]
  Papp: 14.8 ± 1.96 ×10⁻⁶ cm/s
[3]
  Permeability class: high

## COc1ccc2c(c1)c(CC(=O)O)c(C)n2C(=O)c1ccc(Cl)cc1 [indomethacin]
[4]
  Prostaglandin E2 secretion: inhibition of prostaglandin E2 secretion

## tumor necrosis factor alpha [TNF-α]
[5]
  Gene expression of IL-6, IL-8, CCL2, CXCL10, ICAM1, and TNF-α: upregulated
[6]
  LDH release: significant increase
[7]
  Epithelial morphology (histology): altered the epithelial morphology

## CC[C@@]1(O)C(=O)OCc2c1cc1n(c2=O)Cc2cc3c(CN(C)C)c(O)ccc3nc2-1 [topotecan]
[1]
  Papp: 3.1 ± 0.63 ×10⁻⁶ cm/s
[3]
  Permeability class: moderate
[8]
  efflux ratio: 1.4

## O[C@@H](COc1cccc2ncccc12)CN1CCN([C@@H]2c3ccccc3[C@@H]3[C@H](c4ccccc42)C3(F)F)CC1 [zosuquidar]
[9]
  Effect on B to A transport of digoxin: decreased the rate of B to A transport

## CC(=O)N1CCN(c2ccc(OCC3COC(Cn4ccnc4)(c4ccc(Cl)cc4Cl)O3)cc2)CC1 (centres unmarked) [ketoconazole]
[10]
  Effect on CYP3A4 activity (midazolam metabolite formation): specific inhibition

## Nc1ccc(S(=O)(=O)Nc2ccnn2-c2ccccc2)cc1 [sulfaphenazole]
[11]
  Effect on CYP2C9 activity (luminogenic P450 substrate conversion): significantly inhibited

## lucifer yellow
[12]
  Papp: 0.46 ± 0.25 ×10⁻⁶ cm/s
[13]
  Permeability (Papp): 163 ± 29 ×10⁻⁶ cm/s
[14]
  Papp: 1.05 ± 0.1 ×10⁻⁶ cm/s
[3]
  Papp: 0.45 ± 1.5 ×10⁻⁶ cm/s
